Experiments:
PsKAI2A = target: T1, PsKAI2A (Lathyrus oleraceus, UniProt A0A9D4YJ13); test: intrinsic tryptophan fluorescence Kd; hydrolysis by UPLC; MS covalent adduct; type: binding
T1 construct: gene KIW84_024963; PsKAI2A.2 (272 aa)
T1 sequence (A0A9D4YJ13 1-264 limits assumed): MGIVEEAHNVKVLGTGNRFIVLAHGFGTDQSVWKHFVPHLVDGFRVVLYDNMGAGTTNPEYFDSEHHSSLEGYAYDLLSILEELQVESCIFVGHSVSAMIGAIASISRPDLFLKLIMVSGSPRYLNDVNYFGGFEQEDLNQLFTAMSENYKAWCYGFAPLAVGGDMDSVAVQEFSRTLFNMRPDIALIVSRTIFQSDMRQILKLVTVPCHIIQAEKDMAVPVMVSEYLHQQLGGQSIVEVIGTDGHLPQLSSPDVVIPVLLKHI

AtD14 = target: T2, AtD14 (Arabidopsis thaliana, UniProt Q9SQR3); test: hydrolysis by purified protein, UPLC-UV; type: biochemical
T2 construct: gene D14
T2 sequence (Q9SQR3 1-267): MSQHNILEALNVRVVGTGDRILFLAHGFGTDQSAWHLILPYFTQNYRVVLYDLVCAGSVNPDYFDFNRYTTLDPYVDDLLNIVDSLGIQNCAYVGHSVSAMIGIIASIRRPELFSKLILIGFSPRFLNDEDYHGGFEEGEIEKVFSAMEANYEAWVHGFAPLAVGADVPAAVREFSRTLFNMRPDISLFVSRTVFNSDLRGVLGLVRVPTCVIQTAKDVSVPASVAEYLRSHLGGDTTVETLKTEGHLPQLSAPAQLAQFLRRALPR

PsKAI2B [1] = target: T3, PsKAI2B (Lathyrus oleraceus, UniProt A0A8X6EGX8); test: intrinsic tryptophan fluorescence Kd; DSF shift; hydrolysis by UPLC; MS covalent adduct; type: binding
T3 sequence (A0A8X6EGX8 1-270): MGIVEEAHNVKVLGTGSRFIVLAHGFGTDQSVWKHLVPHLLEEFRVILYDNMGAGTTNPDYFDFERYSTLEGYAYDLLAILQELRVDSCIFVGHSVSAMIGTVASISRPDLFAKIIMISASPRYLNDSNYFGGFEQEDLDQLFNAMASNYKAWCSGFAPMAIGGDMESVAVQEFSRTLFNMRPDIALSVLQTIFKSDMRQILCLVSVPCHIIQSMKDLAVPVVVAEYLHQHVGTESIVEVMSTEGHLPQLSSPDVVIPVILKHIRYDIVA

RMS3 = target: T4, RMS3 (Lathyrus oleraceus, UniProt A0A109QYD3); test: hydrolysis by purified protein, UPLC-UV; type: biochemical
T4 sequence (A0A109QYD3 1-267): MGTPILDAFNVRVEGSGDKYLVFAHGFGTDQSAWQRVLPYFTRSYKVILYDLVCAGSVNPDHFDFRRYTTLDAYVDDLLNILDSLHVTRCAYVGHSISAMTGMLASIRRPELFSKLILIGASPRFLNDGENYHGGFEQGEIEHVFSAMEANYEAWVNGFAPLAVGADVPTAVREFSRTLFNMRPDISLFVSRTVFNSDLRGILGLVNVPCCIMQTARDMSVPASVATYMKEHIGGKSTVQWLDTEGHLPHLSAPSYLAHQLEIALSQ

PsKAI2B [2] = target: T3, PsKAI2B; test: co-crystal structure with (–)-GR24 at […] Å; hydrolysis product trapped in catalytic site; MS +[…] Da adduct on H246; type: binding

## CC1=C[C@@H](O/C=C2/C(=O)O[C@H]3c4ccccc4C[C@@H]23)OC1=O [(–)-GR24]
PsKAI2A
  Kd: 115 ± 9.87 µM
AtD14
  hydrolysis by purified protein, UPLC-UV: AtD14 and PsRMS3 (Pisum D14) similarly bind and hydrolyze both the isolated (–)- and (+)-GR24 stereoisomers
PsKAI2B [1]
  Kd: 89.4 ± 12.1 µM
RMS3
  hydrolysis by purified protein, UPLC-UV: AtD14 and PsRMS3 (Pisum D14) similarly bind and hydrolyze both the isolated (–)- and (+)-GR24 stereoisomers

## CC1=CC(O)OC1=O [D-OH, 5-hydroxy-3-methylbutenolide]
PsKAI2B [2]
  co-crystal structure with (-)-GR24 at 2.0 Å; hydrolysis product trapped in catal: 5-hydroxy-3-methylbutenolide (D-OH ring), resulting from the (–)-GR24 cleavage, is trapped in the catalytic site
